Assay results published in patent US20250213550A1, “COMPOUNDS AND METHODS FOR TREATING INFLAMMATORY BOWEL DISEASE” (Gilead Sciences, Inc., priority 2023, published 2025).
Where two headings read alike, the source gives them in different places.

Assays:
[1] = Drug-drug interaction: Compound 1 on PK of combined oral contraceptive DRSP/EE; format: in vivo, human; settings: co-administration of Compound 1 (600 mg) with DRSP/EE, relative to DRSP/EE alone
Procedure: A Phase 1, open-label, single-center, multiple-cohort study was conducted to evaluate the effect of a mixed OATP/P-gp inhibitor (cyclosporine A; CsA) or food on the PK of Compound 1, the effect of Compound 1 on the PK of midazolam (MDZ), the effect of Compound 1 on the PK of OATP/CYP3A/BCRP substrates using atorvastatin (ATV), pravastatin (PRA), and rosuvastatin (ROS), and the effect of Compound 1 on the PK of a representative combined oral contraceptive (drospirenone/ethinyl estradiol; DRSP/EE), in healthy participants. 70 participants ages 18 to 55 years (inclusive) and having BMI of ≥18.0 kg/m^2 and ≤30.0 kg/m^2 were enrolled. For Cohorts 1-3, there were an approximately even distribution of healthy participants assigned male at birth and nonpregnant, nonlactating participants assigned female at birth. Cohort 4 included only healthy, nonpregnant, nonlactating participants assigned female at birth.
Participants in Cohort 4 received treatment sequence OPQR.
Treatment O: Single dose of DRSP 3 mg and EE 0.02 mg, administered under fasting condition on Day 1 of Period 1 […]
Concentrations of Compound 1 and its active metabolites Compound A and Compound B, MDZ and its metabolite 1-OH-MDZ, ATV and its metabolite 2-OH-ATV, PRA, ROS, DRSP, and EE in plasma PK samples were determined by validated high performance liquid chromatography tandem mass spectrometry (LC-MS/MS) bioanalytical methods.

[2] = Phase 1 single- and multiple-ascending dose study: plasma PK of Compound A after oral Compound 1; format: in vivo, human; settings: for Ctau / AUCtau/D / Cmax/D / AUC: Day 10, mean; for AUCtau/D / Cmax/D: dose-normalized; for half-life / AUC / Tmax: human, plasma
Procedure: A 2-part, single- and multiple-ascending dose sponsor-unblinded Phase 1 study was conducted for Cohorts 1-9 to evaluate the safety, tolerability, PK, and PD of Compound 1 in healthy participants. Up to 72 participants ages 18 to 55 years (inclusive) and having body mass index (BMI) of ≥19.0 and ≤30.0 kg/m^2 were enrolled. For Cohort 9, participants were homozygous for the UGT1A1*28 allele (UGT1A1 *28/*28: TA7/TA7).
Part A proceeded in 4 staggered, dose-escalation cohorts. Within each of Cohorts 1-4, 8 unique participants were randomized 3:1 to receive blinded Compound 1 (N=6) or placebo-to-match (PTM) (N=2). The dose of Compound 1 for all adaptive cohorts (Cohorts 2, 3, and 4) was determined based on cumulative safety and available PK data through a minimum of Day 3 from previous cohorts, not exceeding the specified upper dose limit (Table 2). Dosing in Part A was completed prior to proceeding with Part B.
Part B proceeded in up to 5 staggered, dose-escalation cohorts. Within each of Cohorts 5-9, 8 unique participants were randomized 3:1 to receive blinded Compound 1 (N=6) or PTM (N=2). Start of multiple dosing within Adaptive Cohort 5 was determined by review of the cumulative safety and PK data through at least Day 3 of the final cohort in Part A. Initiation of subsequent multiple-dose cohorts at a higher dose (Cohorts 6, 7, 8, and 9) was determined based on cumulative safety through at least Day 10 from all participants enrolled in the previous multiple-dose cohort (Table 3).
For Cohorts 1-4, plasma PK sampling occurred relative to the dose of Compound 1 at the following time points: • Day 1: 0 (pre-dose, ≤5 min prior to dosing), 0.25, 0.5, 1, 1.5, 2, 3, 4, 6, 8, 12, 18, 24, 36, 48, 72, 96, and 120 hours post-dose A single plasma PK sample was collected at early termination (ET), if applicable.
For Cohorts 5-9, plasma PK sampling occurred relative to the dose of Compound 1 at the following time points: • Day 1 (Cohorts 8 and 9): pre-dose (≤5 min before dose), 0.5, 1, 2, 3, 4, 6, 8, 12, 13, 14, 15, 16, 18, and 20 hours post-dose (relative to AM dose) • Day 10 (Cohorts 5-9): pre-dose (≤5 min before dose), 0.25, 0.5, 1, 1.5, 2, 3, 4, 6, 8, 12, 18, 24, 36, 48, 72, 96, and 120 hours post-dose • A pre-dose sample was collected on Days 2, 4, 7, and 8. A single plasma PK sample was collected at early termination (ET), if applicable.
Concentrations of Compound 1, and its respective metabolites Compound A and Compound B in plasma PK samples were determined by validated high-performance liquid chromatography-tandem mass spectrometry (LC-MS/MS) bioanalytical methods.
Pharmacokinetic parameters for Compound 1 and its metabolites were determined from the plasma concentration-time profiles for all evaluable participants.
Compound 1 was administered under fasting conditions following an overnight fast (no food or drinks except water) for at least 10 hours; food could be consumed 4 hours after administration of Compound 1.

[3] = Cohort 5, 75 mg Cpd 1 QD fasted
[4] = Cohort 6, 300 mg Cpd 1 QD fasted
[5] = Cohort 7, 900 mg Cpd 1 QD fasted

Cn1ccc2c([C@@H](c3cn(C45CC(C4)C5)nn3)N(C(=O)OCOP(=O)(O)O)c3cc(Cl)c4ncc(C#N)c(NCC(C)(C)C)c4c3)cccc2c1=O [Compound 1]
change in AUCinf of DRSP [1]: no change
change in Cmax of EE [1]: no change

Cn1ccc2c([C@H](Nc3cc(Cl)c4ncc(C#N)c(NCC(C)(C)C)c4c3)c3cn(C45CC(C4)C5)nn3)cccc2c1=O [Compound A]
Ctau [2, 3]: 0.273 µg/mL
Ctau [2, 4]: 1.07 µg/mL
Ctau [2, 5]: 2.33 µg/mL
time to steady-state exposures ([2]; Compound 1 once-daily dosing): ≤ 7 days
AUCtau/D [2, 3]: 0.141 µg·h/mL
Cmax/D [2, 3]: 13.1 ng/mL
AUCtau/D [2, 4]: 0.125 µg·h/mL
Cmax/D [2, 4]: 10.6 ng/mL
AUCtau/D [2, 5]: 0.0691 µg·h/mL
Cmax/D [2, 5]: 5.5 ng/mL
half-life ([2]; oral, 75 mg, Cohort 5, 75 mg Cpd 1 QD fasted, Day 10, median, read-out: t1/2 (converted)): 21.8 h
half-life ([2]; oral, 300 mg, Cohort 6, 300 mg Cpd 1 QD fasted, Day 10, median, read-out: t1/2 (converted)): 19 h
half-life ([2]; oral, 900 mg, Cohort 7, 900 mg Cpd 1 QD fasted, Day 10, median, read-out: t1/2 (converted)): 28.5 h
half-life ([2]; oral, across Compound 1 dose levels, single or multiple doses, read-out: median t1/2): 20 to 30 h
AUC ([2]; oral, Cohort 5, 75 mg Cpd 1 QD fasted): 10500 ng·h/mL
Tmax ([2]; oral, Cohort 5, 75 mg Cpd 1 QD fasted, Day 10, median, read-out: Tmax): 3 h
AUC ([2]; oral, Cohort 6, 300 mg Cpd 1 QD fasted): 37400 ng·h/mL
Tmax ([2]; oral, Cohort 6, 300 mg Cpd 1 QD fasted, Day 10, median, read-out: Tmax): 4 h
AUC ([2]; oral, Cohort 7, 900 mg Cpd 1 QD fasted): 62200 ng·h/mL
Tmax ([2]; oral, Cohort 7, 900 mg Cpd 1 QD fasted, Day 10, median, read-out: Tmax): 3.01 h
Tmax ([2]; oral, multiple doses of Compound 1 (75 to 900 mg QD, 600 mg BID), fasted, range across cohorts, read-out: median Tmax): 2 to 4 h
half-life ([2]; oral, multiple doses of Compound 1 (75 to 900 mg QD, 600 mg BID), fasted, range across cohorts, read-out: median t1/2): 19 to 28 h
half-life ([2]; po, single oral doses of Compound 1 (300 to 1500 mg), fasted, range across doses, read-out: median terminal elimination t1/2): 22 to 29 h
Tmax ([2]; single oral doses of Compound 1 (300 to 1500 mg), fasted, range across doses, read-out: median Tmax): 3 to 4 h
exposure (AUC) accumulation ([2]; multiple dosing of 600 mg Compound 1 once daily): approximately 2 fold
steady-state plasma exposure (Cmax and AUC) ([2]; multiple once-daily doses of Compound 1, 75 to 900 mg, fasted): increased in a dose-dependent manner
plasma exposure (Cmax, AUCinf, and AUClast) ([2]; single oral doses of Compound 1, 300 to 900 mg dose range, fasted): increased in a dose-dependent manner
